Data reported in patent EP4722201A1, “3-PHENYLISOXAZOLINE-5-CARBOXAMIDE COMPOUND, AND PREPARATION METHOD THEREFOR, HERBICIDAL COMPOSITION THEREOF AND USE THEREOF” (Jiangsu Flag Chemical Industry Co., Ltd, priority 2023, dated 2024).

Experiments:
Type in all cases: in vivo
[1] = tested on: Digitaria sanguinalis; test: Indoor herbicide activity determination, post-emergence (stem and leaf spray at 2-4 leaf stage); details: 504 h, 60 g a.i./ha, determined 21 days later, read-out: Inhibition rate of fresh weight, Digitaria sanguinalis
Procedure, shortened: (§1)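 Potted weeds in sandy nutrient soil (pH 6.1, 1% organic matter) were grown in a constant-temperature illuminated room to the 2-4 leaf stage, then given a stem-and-leaf spray. Plants went back to the culture room once the spray had dried in shade. At 21 days, fresh weight inhibition % was calculated relative to untreated control plants.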

[2] = tested on: Cyperus iria; test: as above; details: 504 h, 60 g a.i./ha, determined 21 days later, read-out: Inhibition rate of fresh weight, Cyperus iria
Procedure, shortened: as §1

[3] = tested on: Eclipta prostrata; test: as above; details: 504 h, 60 g a.i./ha, determined 21 days later, read-out: Inhibition rate of fresh weight, Eclipta prostrata
Procedure, shortened: as §1

[4] = tested on: Alopecurus myosuroides; test: Indoor herbicide activity determination, Seed Treatment; pre-emergence (soil spray); details: Dosage 240 g a.i./ha
Procedure, shortened: (§2)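 Sow seeds into soil-filled 7 cm pots (sandy, pH 6.1, 1% organic matter) and cover them. Water from beneath, then incubate 24 h in a lit, temperature-controlled chamber. Spray the soil in a traveling tower, let it dry in shade, grow on 21 days, and weigh fresh biomass against controls.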

[5] = tested on: Eleusine indica; test: as above; details: Dosage 240 g a.i./ha
Procedure, shortened: as §2

[6] = tested on: Leptochloa chinensis; test: as above; details: Dosage 240 g a.i./ha
Procedure, shortened: as §2

[7] = tested on: Alopecurus japonicus; test: as above; details: Dosage 240 g a.i./ha
Procedure, shortened: as §2

[8] = tested on: Lolium multiflorum; test: as above; details: Dosage 240 g a.i./ha
Procedure, shortened: as §2

Question: With `C=CC1(C(=O)N[C@H]2C[C@@H](C(=O)OC)C2)CC(c2cc(F)cc(C(F)(F)F)c2)=NO1` (mixture of isomers) [I-51] as the compound, how does the inhibition at 60 g/ha [1] read?
Answer: The inhibition at 60 g/ha was 60 to 80%.

Question: What about the inhibition at 60 g/ha [2] of the same compound?
Answer: Its inhibition at 60 g/ha is 80 to 100%.

Question: And the inhibition at 60 g/ha [3]?
Answer: The inhibition at 60 g/ha was 60 to 80%.

Question: And the “Herbicidal activities, Alopecurus myosuroides (inhibition rate class)” value [4]?
Answer: Its value is “A (A indicates that the inhibition rate was greater than or equal to 80% to 100%)”.

Question: What about the “Herbicidal activities, Eleusine indica (inhibition rate class)” value [5] of the same compound?
Answer: Its value is “A (A indicates that the inhibition rate was greater than or equal to 80% to 100%)”.

Question: What about the “Herbicidal activities, Leptochloa chinensis (inhibition rate class)” value [6] of the same compound?
Answer: Its value is “A (A indicates that the inhibition rate was greater than or equal to 80% to 100%)”.

Question: What about the “Herbicidal activities, Alopecurus japonicus (inhibition rate class)” value [7] of the same compound?
Answer: Its value is “A (A indicates that the inhibition rate was greater than or equal to 80% to 100%)”.

Question: What about the “Herbicidal activities, Lolium multiflorum (inhibition rate class)” value [8] of the same compound?
Answer: The value was “A (A indicates that the inhibition rate was greater than or equal to 80% to 100%)”.

Question: How did the inhibition at 60 g/ha [1] turn out when `O=C(N[C@H]1C[C@@H](C(=O)O)C1)C1(C(F)(F)F)CC(c2cc(Cl)cc(Cl)c2)=NO1` (relative stereo) [I-229] was run?
Answer: The inhibition at 60 g/ha was 80 to 100%.

Question: And the inhibition at 60 g/ha [2]?
Answer: Its inhibition at 60 g/ha is 80 to 100%.

Question: What about the inhibition at 60 g/ha [3] of the same compound?
Answer: The inhibition at 60 g/ha was 60 to 80%.

Question: And the “Herbicidal activities, Alopecurus myosuroides (inhibition rate class)” value [4]?
Answer: The value was “A (A indicates that the inhibition rate was greater than or equal to 80% to 100%)”.

Question: And the “Herbicidal activities, Eleusine indica (inhibition rate class)” value [5]?
Answer: The value was “A (A indicates that the inhibition rate was greater than or equal to 80% to 100%)”.

Question: And the “Herbicidal activities, Leptochloa chinensis (inhibition rate class)” value [6]?
Answer: Its value is “A (A indicates that the inhibition rate was greater than or equal to 80% to 100%)”.

Question: What about the “Herbicidal activities, Alopecurus japonicus (inhibition rate class)” value [7] of the same compound?
Answer: The value was “A (A indicates that the inhibition rate was greater than or equal to 80% to 100%)”.

Question: And the “Herbicidal activities, Lolium multiflorum (inhibition rate class)” value [8]?
Answer: The value was “A (A indicates that the inhibition rate was greater than or equal to 80% to 100%)”.

Question: `O=C(N[C@H]1C[C@@H](C(=O)O)C1)C1(C(F)(F)F)CC(c2cc(F)cc(C(F)(F)F)c2)=NO1` (relative stereo) [I-241] was tested. Which inhibition at 60 g/ha [1] did it give?
Answer: The inhibition at 60 g/ha was 80 to 100%.

Question: And the inhibition at 60 g/ha [2]?
Answer: The inhibition at 60 g/ha was 80 to 100%.

Question: And the inhibition at 60 g/ha [3]?
Answer: Its inhibition at 60 g/ha is 60 to 80%.

Question: What about the “Herbicidal activities, Alopecurus myosuroides (inhibition rate class)” value [4] of the same compound?
Answer: Its value is “A (A indicates that the inhibition rate was greater than or equal to 80% to 100%)”.

Question: And the “Herbicidal activities, Eleusine indica (inhibition rate class)” value [5]?
Answer: Its value is “A (A indicates that the inhibition rate was greater than or equal to 80% to 100%)”.

Question: And the “Herbicidal activities, Leptochloa chinensis (inhibition rate class)” value [6]?
Answer: The value was “A (A indicates that the inhibition rate was greater than or equal to 80% to 100%)”.

Question: And the “Herbicidal activities, Alopecurus japonicus (inhibition rate class)” value [7]?
Answer: The value was “A (A indicates that the inhibition rate was greater than or equal to 80% to 100%)”.

Question: What about the “Herbicidal activities, Lolium multiflorum (inhibition rate class)” value [8] of the same compound?
Answer: Its value is “A (A indicates that the inhibition rate was greater than or equal to 80% to 100%)”.

Question: How did the inhibition at 60 g/ha [1] turn out when `C=CC1(C(=O)N[C@H]2C[C@@H](C(=O)OC)C2)CC(c2cc(F)cc(Cl)c2)=NO1` (mixture of isomers) [I-29] was run?
Answer: Its inhibition at 60 g/ha is 80 to 100%.

Question: And the inhibition at 60 g/ha [2]?
Answer: The inhibition at 60 g/ha was 80 to 100%.

Question: And the inhibition at 60 g/ha [3]?
Answer: The inhibition at 60 g/ha was 40 to 60%.

Question: And the “Herbicidal activities, Alopecurus myosuroides (inhibition rate class)” value [4]?
Answer: The value was “A (A indicates that the inhibition rate was greater than or equal to 80% to 100%)”.

Question: And the “Herbicidal activities, Eleusine indica (inhibition rate class)” value [5]?
Answer: Its value is “A (A indicates that the inhibition rate was greater than or equal to 80% to 100%)”.

Question: And the “Herbicidal activities, Leptochloa chinensis (inhibition rate class)” value [6]?
Answer: Its value is “A (A indicates that the inhibition rate was greater than or equal to 80% to 100%)”.

Question: And the “Herbicidal activities, Alopecurus japonicus (inhibition rate class)” value [7]?
Answer: Its value is “A (A indicates that the inhibition rate was greater than or equal to 80% to 100%)”.

Question: What about the “Herbicidal activities, Lolium multiflorum (inhibition rate class)” value [8] of the same compound?
Answer: The value was “A (A indicates that the inhibition rate was greater than or equal to 80% to 100%)”.

Question: Which inhibition at 60 g/ha [1] does the source give for `C=C(F)C1(C(=O)N[C@H]2C[C@@H](C(=O)OC)C2)CC(c2cc(F)cc(F)c2)=NO1` (relative stereo) [I-356] here?
Answer: The inhibition at 60 g/ha was 60 to 80%.

Question: What about the inhibition at 60 g/ha [2] of the same compound?
Answer: Its inhibition at 60 g/ha is 80 to 100%.

Question: What about the inhibition at 60 g/ha [3] of the same compound?
Answer: The inhibition at 60 g/ha was 40 to 60%.

Question: And the “Herbicidal activities, Alopecurus myosuroides (inhibition rate class)” value [4]?
Answer: The value was “A (A indicates that the inhibition rate was greater than or equal to 80% to 100%)”.

Question: What about the “Herbicidal activities, Eleusine indica (inhibition rate class)” value [5] of the same compound?
Answer: Its value is “A (A indicates that the inhibition rate was greater than or equal to 80% to 100%)”.

Question: What about the “Herbicidal activities, Leptochloa chinensis (inhibition rate class)” value [6] of the same compound?
Answer: The value was “A (A indicates that the inhibition rate was greater than or equal to 80% to 100%)”.

Question: And the “Herbicidal activities, Alopecurus japonicus (inhibition rate class)” value [7]?
Answer: Its value is “A (A indicates that the inhibition rate was greater than or equal to 80% to 100%)”.

Question: What about the “Herbicidal activities, Lolium multiflorum (inhibition rate class)” value [8] of the same compound?
Answer: Its value is “A (A indicates that the inhibition rate was greater than or equal to 80% to 100%)”.

Question: What does the source list for `C=CC1(C(=O)N[C@H]2C[C@@H](C(=O)OC)C2)CC(c2cc(F)cc(OC(F)(F)F)c2)=NO1` (mixture of isomers) [I-59]?
Answer: inhibition at 60 g/ha [1]: 80 to 100%; inhibition at 60 g/ha [2]: 80 to 100%; inhibition at 60 g/ha [3]: 60 to 80%; Herbicidal activities, Alopecurus myosuroides (inhibition rate class) [4]: A (A indicates that the inhibition rate was greater than or equal to 80% to 100%); Herbicidal activities, Eleusine indica (inhibition rate class) [5]: A (A indicates that the inhibition rate was greater than or equal to 80% to 100%); Herbicidal activities, Leptochloa chinensis (inhibition rate class) [6]: A (A indicates that the inhibition rate was greater than or equal to 80% to 100%); Herbicidal activities, Alopecurus japonicus (inhibition rate class) [7]: A (A indicates that the inhibition rate was greater than or equal to 80% to 100%); Herbicidal activities, Lolium multiflorum (inhibition rate class) [8]: A (A indicates that the inhibition rate was greater than or equal to 80% to 100%)

Question: Which inhibition at 60 g/ha [1] does the source give for `COC(=O)[C@H]1C[C@@H](NC(=O)C2(C(F)(F)F)CC(c3cc(F)cc(Cl)c3)=NO2)C1` (mixture of isomers) [I-225] here?
Answer: Its inhibition at 60 g/ha is 80 to 100%.

Question: What about the inhibition at 60 g/ha [2] of the same compound?
Answer: The inhibition at 60 g/ha was 80 to 100%.

Question: And the inhibition at 60 g/ha [3]?
Answer: Its inhibition at 60 g/ha is 60 to 80%.

Question: And the “Herbicidal activities, Alopecurus myosuroides (inhibition rate class)” value [4]?
Answer: The value was “A (A indicates that the inhibition rate was greater than or equal to 80% to 100%)”.

Question: What about the “Herbicidal activities, Eleusine indica (inhibition rate class)” value [5] of the same compound?
Answer: Its value is “A (A indicates that the inhibition rate was greater than or equal to 80% to 100%)”.

Question: And the “Herbicidal activities, Leptochloa chinensis (inhibition rate class)” value [6]?
Answer: The value was “A (A indicates that the inhibition rate was greater than or equal to 80% to 100%)”.

Question: And the “Herbicidal activities, Alopecurus japonicus (inhibition rate class)” value [7]?
Answer: The value was “A (A indicates that the inhibition rate was greater than or equal to 80% to 100%)”.

Question: And the “Herbicidal activities, Lolium multiflorum (inhibition rate class)” value [8]?
Answer: The value was “A (A indicates that the inhibition rate was greater than or equal to 80% to 100%)”.

Question: For `C=CC1(C(=O)N[C@H]2C[C@@H](C(=O)O)C2)CC(c2cc(F)cc(OC(F)(F)F)c2)=NO1` (mixture of isomers) [I-57], which inhibition at 60 g/ha [1] is on record?
Answer: Its inhibition at 60 g/ha is 80 to 100%.

Question: And the inhibition at 60 g/ha [2]?
Answer: The inhibition at 60 g/ha was 80 to 100%.

Question: And the inhibition at 60 g/ha [3]?
Answer: Its inhibition at 60 g/ha is 60 to 80%.

Question: What about the “Herbicidal activities, Alopecurus myosuroides (inhibition rate class)” value [4] of the same compound?
Answer: Its value is “A (A indicates that the inhibition rate was greater than or equal to 80% to 100%)”.

Question: What about the “Herbicidal activities, Eleusine indica (inhibition rate class)” value [5] of the same compound?
Answer: The value was “A (A indicates that the inhibition rate was greater than or equal to 80% to 100%)”.

Question: What about the “Herbicidal activities, Leptochloa chinensis (inhibition rate class)” value [6] of the same compound?
Answer: Its value is “A (A indicates that the inhibition rate was greater than or equal to 80% to 100%)”.

Question: And the “Herbicidal activities, Alopecurus japonicus (inhibition rate class)” value [7]?
Answer: Its value is “A (A indicates that the inhibition rate was greater than or equal to 80% to 100%)”.

Question: What about the “Herbicidal activities, Lolium multiflorum (inhibition rate class)” value [8] of the same compound?
Answer: Its value is “A (A indicates that the inhibition rate was greater than or equal to 80% to 100%)”.
